Key:
Type in all cases: physicochemical
[1] = Storage of amorphous anhydrous form at ambient conditions
Experimental: . The amorphous anhydrous form of (S)-CSA salt of S-ketamine was also obtained (in a mixture with the monohdrate form) by slurrying the crystalline monohydrate form of (S)-CSA salt of S-ketamine in 2-methyl THF or isopropyl acetate at about 80° C. for about 4 days.

[2] = Solubility in select solvents after 24 hours, filtrate analyzed by HPLC
Experimental: Additionally, the solubility of the monohydrate crystalline form of the (S)-CSA salt of S-ketamine in select solvents was determined as follows: 21 g of (S)-CSA salt of S- ketamine was dissolved in 100 mL of solvent (as listed in Table 5 below). After 24 hours, the solutions were analyzed visually. If the compound was completely dissolved, solubility was above 20 g/100 mL. If the compound was not completely dissolved, any remaining precipitate was filtered off, the filtrate was diluted 400-fold with HPLC dilution solvent (or acetonitrile/HPLC dilution solvent) and analyzed by HPLC, with results as listed in Table 5, below.

[3] = Dynamic Vapor Sorption (DVS) measurement
Experimental: Dynamic Vapor Sorption (DVS) measurements (where completed) were measured using a Projekt Messtechnik Sorptions Prufsystem SPS 11 or Surface Measurement Systems DVS-1 scanning (cycling relative humidity and hodling the sample at a set relative humidity) as follow: (a) holding sample at 50% RH for 2 hours; (b) 50% RH to 0% RH (5%/h); holding at 0% RH for 5 hours; (c) 0% RH to 95% RH (5%/h); holding at 95% RH for 5 hours; and (d) 95% RH to 50% RH (5%/h); holding at 50% RH for 2 hours.

TG-FTIR measurement = conditions: 25° C. to 300° C., 10K/min, nitrogen
Experimental: ThermoGravimetric-Fourier Transform InfraRed (TG-FTIR) measurements, where carried out were measures using a Netzsche Thermo-Microbalance TG209 with Bruker FT-IR Spectrometer Vector 22, with aluminum crucible with microhoel, nitrogen atmosphere and scanning form 25° C. to 300° C. at a heating rate of 10K/min.

[4] = Approximate solubility by stepwise dilution of a suspension; conditions: thermodynamic from solid
Experimental: The approximate solubility of the monohydrate crystalline form of the (S)-CSA salt of S-ketamine was measured by stepwise dilution of a suspension of about 10 mg of the sample in 0.05 mL solvent. Table 4 below lists the approximate solubility, denoted “S”. If a sample was not dissolved by addition of a total of 10-12 mL of solvent, the solubility is indicated as <1 mg/mL in the Table 4, below.

## CC1(C)[C@@H]2CC[C@@]1(CS(=O)(=O)O)C(=O)C2.CN[C@]1(c2ccccc2Cl)CCCCC1=O
[1]; amorphous, anhydrous form
  Hygroscopicity: hygroscopic
[1]; storage at ambient conditions
  Form stability on storage: rapidly converts to the monohydrate form

## CN[C@]1(c2ccccc2Cl)CCCCC1=O [(S)-2-(2-chlorophenyl)-2-(methylammonium)cyclohexanone(+)-camphorsulfonate monohydrate]
[2]; solvent: 2-propanol
  Solubility at 23.6° C.: 7.275 g/100 mL
[2]; solvent: N,N-dimethylacetamide
  Solubility at 23.6° C.: 18.200 g/100 mL
[2]; solvent: N,N-dimethylformamide
  Solubility at 23.6° C.: 18.267 g/100 mL
[2]; solvent: acetic acid
  Solubility at 23.6° C.: 18.209 g/100 mL
[2]; solvent: acetone (2-propanone)
  Solubility at 23.6° C.: 0.578 g/100 mL
[2]; solvent: dichloromethane/methanol (50/50 v/v)
  Solubility at 23.6° C.: 18.589 g/100 mL
[2]; solvent: ethanol
  Solubility at 23.6° C.: 18.297 g/100 mL
[2]; solvent: methanol
  Solubility at 23.6° C.: 18.457 g/100 mL
[2]; thermodynamic from solid, solvent: demineralized water, 23.6° C.
  solubility thermodynamic at 24 h: 53.4 mg/mL
[3]; cycling 0% RH to 95% RH
  Hygroscopicity: no hygroscopicity
[3]; elevated relative humidity
  Physical stability at elevated relative humidity: physical stability
TG-FTIR measurement
  Chemical decomposition temperature: above 230 °C
[4]; 10:1 acetone:water, organic solvent or mixture, solvent: 10:1 aectobne:water
  solubility: 20 to 24 mg/mL
[4]; aqueous with cosolvent or surfactant or cyclodextrin, solvent: 1:1 2-propanol:water
  solubility: 93 to 189 mg/mL
[4]; aqueous with cosolvent or surfactant or cyclodextrin, solvent: 1:1 acetone:water
  solubility: 58 to 77 mg/mL
[4]; organic solvent or mixture, solvent: 1,4-dioxane
  solubility: 5 to 6 mg/mL
[4]; organic solvent or mixture, solvent: 1:1 2-propanol:isopropyl acetate
  solubility: 10 to 11 mg/mL
[4]; organic solvent or mixture, solvent: 2-methyl THF saturated with water
  solubility: 6 to 8 mg/mL
[4]; organic solvent or mixture, solvent: 2-methyl-THF
  solubility: 5 to 7 mg/mL
[4]; organic solvent or mixture, solvent: 2-propanol
  solubility: 22 to 25 mg/mL
[4]; organic solvent or mixture, solvent: 10:1 2-propanol:water
  solubility: 24 to 28 mg/mL
[4]; organic solvent or mixture, solvent: DCM
  solubility: 67 to 101 mg/mL
[4]; organic solvent or mixture, solvent: DMF
  solubility: 91 to 185 mg/mL
[4]; organic solvent or mixture, solvent: DMSO
  solubility: 106 to 212 mg/mL
[4]; organic solvent or mixture, solvent: TBME
  solubility: < 1 mg/mL
[4]; organic solvent or mixture, solvent: THF
  solubility: 5 to 7 mg/mL
[4]; organic solvent or mixture, solvent: acetone
  solubility: 5 to 6 mg/mL
[4]; organic solvent or mixture, solvent: acetonitrile
  solubility: 22 to 24 mg/mL
[4]; organic solvent or mixture, solvent: anisole
  solubility: < 1 mg/mL
[4]; organic solvent or mixture, solvent: ethanol
  solubility: 67 to 100 mg/mL
[4]; organic solvent or mixture, solvent: ethyl acetate
  solubility: < 1 mg/mL
[4]; organic solvent or mixture, solvent: heptane
  solubility: < 1 mg/mL
[4]; organic solvent or mixture, solvent: isopropyl acetate
  solubility: < 1 mg/mL
[4]; organic solvent or mixture, solvent: methanol
  solubility: > 226 mg/mL
[4]; organic solvent or mixture, solvent: toluene
  solubility: < 1 mg/mL
[4]; solvent: water
  solubility: 20 to 24 mg/mL
